Assay results published in PMC5522622 (Drug delivery and translational research, 2017).
Entries after “also recorded” stand apart in the source; their conditions may differ.

Assays:
[1] = test system: reactive oxygen species in RL-14 cells; assay: Reactive oxygen species levels by DCF assay in RL-14 cells; type: cell-based, human; settings: 10 µM, 24 h
[2] = Water solubility; type: physicochemical; settings: stated in words, no test described
[3] = Antioxidant assay kit
[4] = biological target: CYP3A4 (Homo sapiens, UniProt P08684)
Sequence of CYP3A4 (P08684 whole entry): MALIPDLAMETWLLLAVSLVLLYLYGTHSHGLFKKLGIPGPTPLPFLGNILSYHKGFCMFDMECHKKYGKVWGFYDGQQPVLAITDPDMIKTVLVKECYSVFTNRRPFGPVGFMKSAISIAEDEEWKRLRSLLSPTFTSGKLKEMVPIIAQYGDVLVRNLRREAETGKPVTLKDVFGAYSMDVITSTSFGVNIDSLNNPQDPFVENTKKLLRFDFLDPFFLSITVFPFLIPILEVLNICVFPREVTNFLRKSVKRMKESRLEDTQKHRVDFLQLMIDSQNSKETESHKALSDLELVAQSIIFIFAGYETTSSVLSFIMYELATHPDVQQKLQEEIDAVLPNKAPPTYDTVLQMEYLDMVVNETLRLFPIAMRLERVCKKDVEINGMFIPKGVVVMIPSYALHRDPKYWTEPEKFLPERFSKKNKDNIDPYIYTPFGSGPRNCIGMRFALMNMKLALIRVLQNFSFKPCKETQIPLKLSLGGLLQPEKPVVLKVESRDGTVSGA

[5] = test system: β-MHC; assay: β-MHC mRNA expression in RL-14 cells by real-time PCR; settings: 10 µM, 24 h
[6] = test system: adult rat cardiomyocytes; assay: Adult rat cardiomyocyte viability by trypan blue assay; type: cell-based; settings: 18 h; for cell death: 10 µM, trypan blue; for cell death, concentration dependence: 1, 5 and 10 µM
[7] = test system: α-MHC; assay: α-MHC mRNA expression in RL-14 cells by real-time PCR; settings: 10 µM, 24 h
[8] = test system: MDCK-MDR cells (P-gp positive); assay: Fluorescence imaging of doxorubicin uptake by MDCK-MDR cells; type: cell-based, canine
[9] = test system: GST-A1; assay: GST-A1 mRNA expression in RL-14 cells by real-time PCR; type: cell-based, human; settings: 10 µM, 24 h
[10] = test system: BNP; assay: BNP mRNA expression in RL-14 cells by real-time PCR; type: cell-based, human; settings: 10 µM, 24 h
[11] = test system: triple-negative murine breast cancer cell line; assay: Cytotoxicity by resazurin blue assay; type: cell-based; settings: 72 h
[12] = test system: human cardiomyocytes (RL-14); assay: RL-14 cell viability by MTT assay; type: cell-based; settings: 10 µM, 24 h, MTT
[13] = test system: CYP1B1; settings: RL-14 cells
[14] = test system: CYP1B1; settings: MROD and EROD, RL-14 cells
[15] = In vitro drug release of DoxQ in PBS with 10% FBS at 37 °C, HPLC; type: in vitro ADME
[16] = test system: HO-1; assay: HO-1 mRNA expression in RL-14 cells by real-time PCR; type: cell-based, human; settings: 10 µM, 24 h
[17] = RL-14 cell viability by MTT assay; type: cell-based, human; settings: human, RL-14 cardiomyocyte cells

In the case of COc1cccc2c1C(=O)c1c(O)c3c(c(O)c1C2=O)CC(O)(C(=O)CO)CC3OC1CC(NC(=O)CNC(=O)Oc2ccc(-c3oc4cc(O)cc(O)c4c(=O)c3O)cc2O)C(O)C(C)O1 (stereo not shown) [DoxQ, quercetin-Gly-Dox], the “difference in ROS level versus free doxorubicin” value [1] is reported as ~ 234%, the water solubility [2] is reported as “very poor” and the “antioxidant capacity compared to quercetin alone” value ([3]; 1 and 10 mM) is reported as “significantly higher”. For the same molecule, the “antioxidant capacity compared to a mixture of doxorubicin and quercetin” value ([3]; 10 and 50 mM) was “significantly higher”, the “antioxidant effect compared to doxorubicin” value ([3]; all concentrations studied (1, 10, 50)) was “significantly higher” and the “CYP3A4 inhibition (percentage relative to ketoconazole), in words” value ([4]; 0.01, 0.1, 1, 10, 50 and 100 µM) was “inhibited CYP3A4 at all the concentrations tested”. The “concentration with the highest CYP3A4 inhibition” value ([4]; range tested 0.01-100 µM) was 10 nM, the “inhibition of induction of β-MHC mRNA expression compared to doxorubicin” value [5] was 2.5 folds and the cell death [6] was ~ 17%. The “cell death, concentration dependence” value [6] was “dose-response effect”, the “inhibition of induction of α-MHC mRNA expression compared to doxorubicin” value [7] was 1.5 folds and the “fluorescence signal in cells compared to free doxorubicin” value ([8]; 50 nM, Fig. 4) was “higher”. For the same molecule, the “drug uptake (fluorescence signal, ImageJ) compared to free doxorubicin” value ([8]; after 5-min treatment, Fig. 5a) was “significantly enhanced”, the “lowering of GST-A1 mRNA expression in comparison to doxorubicin” value [9] was 1.5 folds and the “inhibition of induction of BNP mRNA expression compared to doxorubicin” value [10] was 6 folds. The “IC50 relative to doxorubicin alone or a mixture of doxorubicin and quercetin” value [11] was “more than twofold higher”, the “cytotoxicity compared to doxorubicin or mixture” value [11] was “substantially less toxic” and the IC50 ([11]; given in words) was “micromolar range”. For the same molecule, the cell viability [12] was 77%, the “prevention of the cytotoxicity mediated by doxorubicin” value [12] was ~ 25% and the “CYP1B1 mRNA expression, in words” value [13] was “reversed these effects”. The “inhibition of CYP1B1 mRNA expression compared to doxorubicin” value ([13]; Fig. 15a) was “more than 4 folds”, the “CYP1B1 catalytic activity, in words” value [14] was “significantly inhibited; also recorded: reversed these effects” and the “duration of in vitro release of doxorubicin from the conjugate” value ([15]; Fig. 3) was “more than 4 days”. For the same molecule, the “release t1/2 of quercetin from the conjugate” value ([15]; aqueous medium, second-order kinetics) was “approximately 100 h”.
For COc1cccc2c1C(=O)c1c(O)c3c(c(O)c1C2=O)C[C@@](O)(C(=O)CO)C[C@@H]3O[C@H]1C[C@H](N)[C@H](O)[C@H](C)O1 [doxorubicin, Doxorubicin, reference compound], the “HO-1 expression lower compared to cells treated with DoxQ” value [16] was 1 fold, the “β-MHC mRNA expression versus control, in words” value [5] was “induced” and the cell death [6] was ~ 22%. The “cell death, concentration dependence” value [6] was “dose-response effect”, the “α-MHC mRNA expression versus control, in words” value [7] was “induced” and the “BNP mRNA expression versus control, in words” value [10] was “induced”. The viability at 24 h, 10 µM [17] was 52%, the “CYP1B1 mRNA expression, in words” value [13] was “induced” and the “CYP1B1 catalytic activity, in words” value [14] was “induced”.
